The target in assay [1] is T1, human plasma renin (Homo sapiens, UniProt P00797).
T1 construct: determined against human plasma renin; from tissue; host or cells: human plasma
T1 sequence (P00797 67-406): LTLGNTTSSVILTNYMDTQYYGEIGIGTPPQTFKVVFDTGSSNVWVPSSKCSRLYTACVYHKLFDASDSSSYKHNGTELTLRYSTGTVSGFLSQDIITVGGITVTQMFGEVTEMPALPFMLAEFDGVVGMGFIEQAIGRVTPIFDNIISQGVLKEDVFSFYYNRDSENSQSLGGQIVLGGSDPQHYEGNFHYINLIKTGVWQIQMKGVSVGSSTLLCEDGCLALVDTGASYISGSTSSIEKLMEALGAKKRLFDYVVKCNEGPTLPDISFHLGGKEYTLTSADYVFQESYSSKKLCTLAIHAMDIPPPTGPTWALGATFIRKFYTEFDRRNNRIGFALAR
The assay is described as follows: Renin-inhibitory potency against human plasma renin. The assay is classed as biochemical. The method, then: Renin-inhibitors potencies were determined against human plasma renin and are expressed as IC50 values.

Assay [2] concerns hog renin. The following applies: after the injection of hog renin into nephrectomized rats; cited from earlier work.

We go through 8 compounds from patent US5049548A, “Renin-inhibitory di-, tri-, and tetrapeptides” (Merck & Co., Inc., priority 1989, dated 1991).

pIC50: −log10 of the molar value. Square brackets hold non-standard residues; d marks the D form. Peptide text beside a SMILES is read from it. * marks the point of attachment. Sta = CC(C)C[C@H](N)[C@@H](O)CC(=O)O; Isovaleryl = CC(C)CC(=O)*

Broadly, the pIC50 is the IC50 on a negative log10 scale, so that one unit is a factor of ten. A low value points to a high IC50. In turn, `CCCC[C@H](NC(=O)[C@H](Cc1ccccc1)N[C@@H]1CN2CCC1CC2)C(=O)N[C@@H](CC1CCCCC1)[C@@H](O)CC(=O)N[C@H](C(=O)NCc1ccncc1)[C@@H](C)CC` [Example 20, N^α -(quinuclidin-3-yl)Phe-Nle-ACHPA-Ile-AMP] showed a pIC50 in assay [1] of 8.30.

On to `CCCC[C@H](NC(=O)[C@H](Cc1ccccc1)N(C)[C@@H]1CN2CCC1CC2)C(=O)N[C@@H](CC1CCCCC1)[C@@H](O)CC(=O)N[C@H](C(=O)NCc1ccncc1)[C@@H](C)CC` [Example 21, N^α -Methyl-N^α -(quinuclidin-3(S)-yl)Phe-Nle-ACHPA-Ile-NHCH2 (pyridin-4-yl)], for which, in assay [1], the negative logarithm of the IC50 (pIC50) was 6.82. Same read-out and setting: next, `CCCC[C@H](NC(=O)[C@H](Cc1ccccc1)N[C@@H]1CN2CCC1CC2)C(=O)N[C@@H](CC1CCCCC1)[C@@H](O)C(=O)OCC` [Example 30, N^α -(Quinuclidin-3(S)-yl)Phe-Nle-norACHPA-OEt]: 7.04. On to `CC(C)CC(=O)N[C@H](C(=O)N[C@H](C(=O)N[C@@H](CC(C)C)[C@@H](O)CC(=O)N[C@@H](C)C(=O)N[C@@H](CC(C)C)[C@@H](O)CC(=O)O)C(C)C)C(C)C` [pepstatin] (Isovaleryl-VV[Sta]A[Sta]-OH), for which, in assay [2], the “blood pressure in vivo” value is given as “reduces blood pressure in vivo”. Turning to “N^α -(Quinuclidin-3(S)-yl)Phe-His-Cal[CH(OH)CH2 ]Val-NH-n-butyl [Example 27]”, the pIC50 in assay [1] is 8.85. Still for that read-out and setting: next, “N^α -(Quinuclidin-3-yl)Phe-His-ACHPA-Ile-NHCH2 (pyridin-4-yl) [Example 24]”: 8.70.

Turning to “N^α -[(pyridin-2-yl)methyl]Phe-His-ACHPA-Ile-NHCH2 (pyridin-4-yl) [Example 31]”, the pIC50 in assay [1] is 8.15. Compared with the last compound, the pIC50 is 0.55 log units lower.

In assay [1], “[N^α -(N-Methylquinuclidin-3(S)-yl)Phe-His-ACHPA-Ile-NH-CH2 -(pyridin-4-yl)]^+ I^- [Example 23]” had a pIC50 of 8.77. This pIC50 lies 0.62 log units higher than the previous one.
